Some test systems named below: MDA-MB-435; NCI-H460; HT-29; SF-268; K562; Malme-3M; SR; HCC 2998; HOP-62; KM12; COLO 205; MDA-MB-231; DU-145; SK-MEL-28; A549; UACC-62; A498; LOX IMVI; Hs-578T.
What all share (assay): NCI tumour cell line growth inhibition, 48 h

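Grown in 96-well plates, cells were treated for 48 hours with each compound at five concentrations. Insufficient inhibition: endpoint recorded as highest concentration tested. Here, GI50 denotes the concentration required for 50% inhibition of growth.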 Calls of active or inactive are those of the source. Cut-off read from the data, not from the text of the source: active = GI50 up to about 1.1 µM and inactive = higher. Where a SMILES comes first, the peptide text is derived from it. The star is where a group is joined. ONb = O=[N+]([O-])c1ccc(CO*)cc1; Boc = CC(C)(C)OC(=O)* Where only a bound is given, the exact number is not on record here.

Consider `Nc1ccc(C(=O)NN2C(=O)[C@H](Cl)C2c2ccc(Cl)cc2)cc1` (some centres undefined), for which the GI50 with MDA-MB-435 was 1.84 µM (inactive); in the experiment on NCI-H460, 2.08 µM (inactive); in the experiment with HT-29, 0.156 µM (active); with SF-268, 1.06 µM (active); in the experiment with K562, 1.82 µM (inactive); in the experiment on Malme-3M, 2.21 µM (inactive). In addition, the GI50 was 0.324 µM (active) in the experiment on SR; 1.65 µM (inactive) in the experiment with HCC 2998; 1.77 µM (inactive) in the experiment with HOP-62; 1.5 µM (inactive) with KM12; 1.93 µM (inactive) in the experiment with COLO 205; 1.81 µM (inactive) in the experiment with MDA-MB-231. Besides, the GI50 was 1.56 µM (inactive) with DU-145, 0.265 µM (active) in the experiment on SK-MEL-28, 2.45 µM (inactive) with A549 and 1.68 µM (inactive) in the experiment on UACC-62.
For `COc1cc2c(c(OC)c1OC)-c1ccc(SC)c(=O)cc1C(CC(=O)Oc1cccc(C#N)c1)C2` (centres undefined), the GI50 in the experiment on NCI-H460 was 0.365 µM (active); in the experiment with HT-29 it was 0.276 µM (active); with SF-268, 0.512 µM (active); in the experiment with K562 it was 0.181 µM (active); in the experiment on Malme-3M, 0.175 µM (active); with SR it was 0.134 µM (active). The GI50 in the experiment with HCC 2998 was 0.254 µM (active); in the experiment on HOP-62, 0.638 µM (active); in the experiment on KM12, 0.292 µM (active); in the experiment on A498, 0.015 µM (active); with COLO 205 it was 0.336 µM (active); with SK-MEL-28, 0.724 µM (active). Also, the GI50 in the experiment with A549 was 0.516 µM (active); with UACC-62, 0.202 µM (active); in the experiment on LOX IMVI, 0.484 µM (active).
On to `CC1[C@@H](OCc2ccccc2)COC(=O)N1Cc1ccccc1` (some centres undefined), for which the GI50 in the experiment on MDA-MB-435 is > 100 µM (inactive); with HT-29 it was > 100 µM (inactive); with SF-268, > 100 µM (inactive); in the experiment on K562 it was 60 µM (inactive); with Malme-3M, > 100 µM (inactive); in the experiment on SR it was > 100 µM (inactive). The GI50 in the experiment with Hs-578T, in the experiment on HOP-62, in the experiment with KM12, with COLO 205, with MDA-MB-231 and in the experiment on DU-145 was > 100 µM (inactive) throughout. For the same molecule, the GI50 was > 100 µM (inactive) in the experiment on SK-MEL-28, 85.9 µM (inactive) with A549, > 100 µM (inactive) in the experiment with UACC-62 and > 100 µM (inactive) with LOX IMVI.
Regarding `O=C1OC(O)C(Oc2c(Cl)cccc2Cl)=C1Cl` (centres undefined), the GI50 with NCI-H460 was 15.5 µM (inactive); in the experiment with HT-29 it was 18.4 µM (inactive); with SF-268, 16 µM (inactive); in the experiment on K562, 17.3 µM (inactive); in the experiment with Malme-3M, 26.5 µM (inactive); with SR, 21.7 µM (inactive). Moreover, the GI50 with HCC 2998 was 23.3 µM (inactive); with HOP-62, 17.7 µM (inactive); in the experiment with KM12 it was 22.3 µM (inactive); with A498, 22.2 µM (inactive); in the experiment on COLO 205, 16.5 µM (inactive); with SK-MEL-28, 20.2 µM (inactive). Moreover, the GI50 with A549 was 17.2 µM (inactive); in the experiment on UACC-62 it was 11.9 µM (inactive); in the experiment on LOX IMVI, 17.9 µM (inactive).
In the case of `CC1(C)CC(=O)C(CC2C(=O)c3ccccc3C2=O)C(=O)C1`, the GI50 with NCI-H460 is > 100 µM (inactive); with HT-29, > 100 µM (inactive); in the experiment with SF-268, > 100 µM (inactive); in the experiment with K562, > 100 µM (inactive); with Malme-3M it was > 100 µM (inactive); in the experiment on SR it was 53.7 µM (inactive). In addition, the GI50 in the experiment on HCC 2998, with HOP-62, in the experiment with KM12, with A498, with COLO 205 and in the experiment with SK-MEL-28 was > 100 µM (inactive) throughout. Also, the GI50 with A549, with UACC-62 and in the experiment on LOX IMVI was > 100 µM (inactive) each time.
Take `Cc1cc(NS(=O)(=O)c2ccc(NC(=O)c3ccc(Cl)c4c(Nc5ccc(S(N)(=O)=O)cc5)c5ccccc5nc34)cc2)no1`: the GI50 with NCI-H460 was 25.8 µM (inactive); in the experiment with HT-29, 22.2 µM (inactive); in the experiment on SF-268, 12.9 µM (inactive); with K562, 26.9 µM (inactive); in the experiment on Malme-3M, 15.5 µM (inactive); in the experiment with SR, 20.4 µM (inactive). Moreover, the GI50 is 18.7 µM (inactive) with HCC 2998; 21.2 µM (inactive) with HOP-62; 19.6 µM (inactive) in the experiment with KM12; 23.3 µM (inactive) with A498; 18.7 µM (inactive) in the experiment on COLO 205; 20.3 µM (inactive) in the experiment on SK-MEL-28. For the same molecule, the GI50 was 66.5 µM (inactive) with A549, 11.2 µM (inactive) in the experiment on UACC-62 and 14.6 µM (inactive) in the experiment on LOX IMVI.
Turning to `CC(=O)Nc1ccccc1-c1cnc2ccccc2n1`, the GI50 with NCI-H460, in the experiment on HT-29, with SF-268, in the experiment with K562, with Malme-3M and with SR was > 100 µM (inactive) in each case. The GI50 in the experiment on HCC 2998, with HOP-62, with KM12, with A498, with COLO 205 and in the experiment on SK-MEL-28 was > 100 µM (inactive) each time. Besides, the GI50 in the experiment on A549, in the experiment with UACC-62 and with LOX IMVI was > 100 µM (inactive) in each case.
Consider `COc1cccc2c1C(=O)c1c(O)c3c(c(O)c1C2=O)C[C@@](O)(C(C)O)C[C@@H]3OC1CC(N)C(O)C(C)O1` (some centres undefined), for which the GI50 in the experiment on NCI-H460 was 0.329 µM (active); in the experiment on HT-29 it was 2.21 µM (inactive); in the experiment on SF-268 it was 1.05 µM (active); in the experiment with K562 it was 1.12 µM (active); in the experiment with Malme-3M it was 0.491 µM (active); with SR, 0.16 µM (active). Further, the GI50 with HCC 2998 is 1.68 µM (inactive); in the experiment on HOP-62, 0.861 µM (active); in the experiment on KM12, 2.24 µM (inactive); in the experiment with A498, 2.18 µM (inactive); in the experiment on COLO 205 it was 1.41 µM (inactive); in the experiment on SK-MEL-28 it was 1.42 µM (inactive). The GI50 in the experiment on A549 was 0.946 µM (active); with UACC-62, 1.34 µM (inactive); with LOX IMVI, 0.524 µM (active).
`Cc1nc(-c2nc(C)c(C(=O)NN(C)C)s2)sc1C(=O)NN(C)C`: the GI50 in the experiment on NCI-H460 was > 100 µM (inactive); in the experiment on HT-29, > 100 µM (inactive); in the experiment on SF-268 it was > 100 µM (inactive); in the experiment with K562, 32.6 µM (inactive); with Malme-3M it was > 100 µM (inactive); in the experiment on SR, 19.7 µM (inactive). The GI50 was > 100 µM (inactive) in the experiment on HCC 2998; > 100 µM (inactive) in the experiment with HOP-62; > 100 µM (inactive) in the experiment with KM12; > 100 µM (inactive) in the experiment on A498; 21.7 µM (inactive) in the experiment with COLO 205; > 100 µM (inactive) in the experiment with SK-MEL-28. For the same molecule, the GI50 in the experiment with UACC-62 was > 100 µM (inactive); with LOX IMVI, 23.6 µM (inactive).
Regarding `Cc1c(/C=N/NC(=O)c2ccccc2)c(=O)n(-c2ccccc2)n1C`, the GI50 in the experiment with NCI-H460, with HT-29, with SF-268, in the experiment with K562, with Malme-3M and with SR was > 100 µM (inactive) each time. Also, the GI50 with HCC 2998, in the experiment with HOP-62, in the experiment with KM12, with A498, with COLO 205 and in the experiment on SK-MEL-28 was > 100 µM (inactive) in each case. In addition, the GI50 in the experiment on A549, with UACC-62 and in the experiment with LOX IMVI was > 100 µM (inactive) throughout.
On to `CC(C)CC(NC(=O)OC(C)(C)C)C(=O)NC(CCC(=O)OCc1ccc([N+](=O)[O-])cc1)C(=O)OCc1ccc([N+](=O)[O-])cc1` (stereo not drawn) (Boc-Leu-Glu(ONb)-ONb; configuration not given here), for which the GI50 in the experiment on MDA-MB-435 was > 10 µM (inactive); in the experiment on NCI-H460, 22 µM (inactive); with HT-29 it was 21.2 µM (inactive); in the experiment with SF-268, 18.4 µM (inactive); in the experiment on K562, 9.44 µM (inactive); in the experiment with Malme-3M it was > 100 µM (inactive). For the same molecule, the GI50 is 13.8 µM (inactive) with SR; 23 µM (inactive) with HCC 2998; > 100 µM (inactive) in the experiment on HOP-62; 40.2 µM (inactive) with A498; 17.4 µM (inactive) in the experiment on COLO 205; > 100 µM (inactive) in the experiment with MDA-MB-231. Further, the GI50 is 13.5 µM (inactive) in the experiment on DU-145, 15.8 µM (inactive) in the experiment with SK-MEL-28, 28.4 µM (inactive) in the experiment on UACC-62 and 25.2 µM (inactive) in the experiment with LOX IMVI.
For the molecule `NCCS(=O)(=O)O` [TAURINE], the GI50 in the experiment on MDA-MB-435, in the experiment with NCI-H460, in the experiment with HT-29, in the experiment on SF-268, in the experiment with K562 and in the experiment on Malme-3M was > 100 µM (inactive) throughout. Besides, the GI50 with SR, with HCC 2998, with Hs-578T, in the experiment with HOP-62, in the experiment with KM12 and with COLO 205 was > 100 µM (inactive) throughout. In addition, the GI50 in the experiment on MDA-MB-231, in the experiment with DU-145, with SK-MEL-28, in the experiment on A549 and in the experiment on LOX IMVI was > 100 µM (inactive) each time.

Source of the values: ChEMBL document CHEMBL1201862, “PubChem BioAssay data set” (2004).
